How the values were obtained:
[1] = target: T1, β-glucuronidase (GUS) (Escherichia coli, UniProt P05804); test: in vitro hydrolysis with β-glucuronidase, fluorimeter excitation and emission spectra; type: biochemical, E. coli
T1 construct: purchased Sigma Chemicals, St. Louis, Mo
Method: A fluorimetery cuvette was prepared by adding 3 μL of 0.5 mM 7CC-FDG in DMSO (Compound F), to 3 mL of 50 mM Hepes buffer, pH 7.0, with 1 mM each CaCl2 and MgSO4. Fluorescent excitation and emission spectra of the sample were recorded using a Jobin-Yvon-SPEX Instruments Fluormax-2 fluorimeter under the following conditions: excitation at 300-500 nm with emission recorded at 515 or 530 nm (FIG. 4, scan A and B respectively); excitation at 350 nm and emission recorded at 425-650 nm (FIG. 4, scan C); excitation at 406 nm and emission recorded at 425-530 nm (FIG. 4, scan D); and excitation at 488 nm with emission recorded at 500-650 nm (FIG. 4, scan E). […] The ratio computed is the emission at 450 nm when the exciting light was of 350 nm or 406 nm divided by the emission at 515 nm when the exciting light was of 488 nm.

[2] = test system: orange peel acetylesterase (OPAE); test: in vitro hydrolysis with orange peel acetylesterase, fluorescence/FRET plate reading; type: biochemical
Method: (§1) Ninety-six well microtiter plates were prepared containing duplicate samples, each sample containing 4-(5-chloro-6-hydroxycoumarinamido)butyl-5-carboxamidofluorescein diacetate (“Compound 11”, 2 mM, 2 μL) in DMSO with phosphate buffered saline (PBS, 200 μL, pH 7.0). To each well was added orange peel acetylesterase (OPAE, Sigma, St. Louis, Mo., 5 μL, 39 U/mL) as a suspension in (NH4)2SO4 (2.5 M) and sodium oxalate (0.1 M). A set of control samples was prepared in which the OPAE was replaced with PBS (no enzyme). […] The plate was read prior to OPAE addition, at time 0, and at 5, 10, 30, 60, and 150 minutes after addition. Each reading was taken at three wavelength pairs using a Molecular Devices fmax fluorescent plate reader: excite 485/emission 530 (to measure fluorescein fluorescence); excite 350/emission 530 (to measure FRET fluorescence); and excite […] (to measure coumarin fluorescence).
A control set of experiments was preformed as above, but substituting a mixture of equal molar amounts of 5-carboxyfluorescein diacetate (5-CFDA, Calbiochem) and 6-chloro-7-hydroxycoumarin methyl ester. This mixture was non-fluorescent at 530 nm prior to OPAE addition and was fluorescent at 460 nm. […] Furthermore, in this unlinked mixture case, the ratio of 530 nm to 460 nm only changed from 0.13 to 0.7; in contrast to the ratio change for the compound above, from 0.13 to 13.5.

[3] = control samples with OPAE replaced by PBS (no enzyme), non-enzymatic hydrolysis; type: physicochemical; settings: PBS pH 7.0, no enzyme
Method: as §1

T1 sequence (P05804 whole entry): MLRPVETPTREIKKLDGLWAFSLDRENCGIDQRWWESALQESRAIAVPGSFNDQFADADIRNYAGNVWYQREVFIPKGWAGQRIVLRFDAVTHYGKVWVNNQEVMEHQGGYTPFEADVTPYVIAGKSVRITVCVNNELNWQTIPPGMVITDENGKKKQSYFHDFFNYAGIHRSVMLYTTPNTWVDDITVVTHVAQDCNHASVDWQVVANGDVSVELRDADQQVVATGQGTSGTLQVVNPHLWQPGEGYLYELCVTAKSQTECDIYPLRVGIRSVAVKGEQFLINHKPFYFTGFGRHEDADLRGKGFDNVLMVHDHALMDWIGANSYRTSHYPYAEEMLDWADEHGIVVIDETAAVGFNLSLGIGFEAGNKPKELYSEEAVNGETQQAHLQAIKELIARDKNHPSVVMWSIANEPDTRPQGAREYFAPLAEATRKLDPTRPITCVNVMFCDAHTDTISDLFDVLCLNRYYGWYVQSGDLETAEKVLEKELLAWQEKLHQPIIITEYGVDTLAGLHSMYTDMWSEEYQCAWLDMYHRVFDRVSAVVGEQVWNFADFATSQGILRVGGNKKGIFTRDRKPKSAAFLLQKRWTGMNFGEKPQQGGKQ

Row | ratio of 530 nm to 460 nm emission, end of change ([2]; after OPAE hydrolysis (0.94 U/mL, read up to 150 minutes), excitation 350 nm, PBS pH 7.0) | change of coumarin fluorescence (460 nm) after OPAE addition ([2]; in the presence of OPAE) | ratio of 530 nm to 460 nm emission, start of change ([2]; prior to OPAE hydrolysis, excitation 350 nm, PBS pH 7.0) | SMILES | cleavage of the substrate by β-glucuronidase ([1]; 72 Units GUS, 50 mM Hepes pH 7.0) | dynamic range of emission ratio 450 nm/515 nm ([1]; excitation at 350 nm and 488 nm, respectively) | dynamic range of emission ratio 450/515 ([1]; excitation at 406 nm and 488 nm) | quenching of the coumarin moiety fluorescence in the completely cleaved product ([1]; scan D (excitation 406 nm), 60 min. versus 0 min. time point) | non-enzymatic hydrolysis [3]
1 | – | – | – | O=C(O)CCC(NC(=O)Nc1ccc2c(c1)C(=O)OC21c2ccc(OC3OC(C(=O)O)C(O)C(O)C3O)cc2Oc2cc(OC3OC(C(=O)O)C(O)C(O)C3O)ccc21)C(=O)NCCCCNC(=O)c1cc2cc(Cl)c(O)cc2oc1=O (centres unmarked) [Compound 7CC-FDG] | can be cleaved by β-glucuronidase readily | about 23 fold | about 50 fold | more than 50% | –
2 | 13.5 | decrease in fluorescence | 0.13 | CC(=O)Oc1ccc2c(c1)Oc1cc(OC(C)=O)ccc1C21OC(=O)c2cc(C(=O)NCCCCNC(=O)c3cc4c(Cl)c(O)ccc4oc3=O)ccc21 [Compound 11, 4-(5-chloro-6-hydroxycoumarinamido)butyl-5-carboxamidofluorescein diacetate] | – | – | – | – | very low rates of non-enzymatic hydrolysis
